Results published in patent publication US20110065669A1, “OXAZOLOBENZIMIDAZOLE DERIVATIVES” (Merck Sharp & Dohme Corp., priority 2008, published 2011).

Biological target: T1, recombinant human mGluR2 (Homo sapiens, UniProt Q14416)
T1 construct: expressed in transfected cells
Assay: FLIPR assay (Ca2+ mobilization), potentiation of the mGluR2 receptor
Type: cell-based
Settings: CHO dhfr- cells expressing human mGluR2 and Gα16; potentiation after EC20 glutamate (900 nM)
Protocol: Inhibition constants are determined as follows. The compounds of the present invention may be tested in a […] (FLIPR) based assay. This assay is a common functional assay to monitor Ca^2+ mobilization in whole cells expressing recombinant receptor coupled with a promiscuous G-protein. CHO dhfr-cells stably expressing recombinant human mGluR2 and Gα16 loaded with Fluo-4 AM (Invitrogen, Carlsbad Calif.) are treated with dose responses of compounds and the Ca^2+ response is monitored on a FLIPR384 (Molecular Devices, Sunnydale Calif.) for agonist activity. The potentiation response is monitored after a subsequent addition of an EC20 concentration of glutamate (900 nM). The maximum calcium response at each concentration of compound for agonist or potentiation are plotted as dose responses and the curves are fitted with a four parameters logistic equation giving EC50 and Hill coefficient using the iterative non linear curve fitting software program.

T1 sequence (Q14416 19-872): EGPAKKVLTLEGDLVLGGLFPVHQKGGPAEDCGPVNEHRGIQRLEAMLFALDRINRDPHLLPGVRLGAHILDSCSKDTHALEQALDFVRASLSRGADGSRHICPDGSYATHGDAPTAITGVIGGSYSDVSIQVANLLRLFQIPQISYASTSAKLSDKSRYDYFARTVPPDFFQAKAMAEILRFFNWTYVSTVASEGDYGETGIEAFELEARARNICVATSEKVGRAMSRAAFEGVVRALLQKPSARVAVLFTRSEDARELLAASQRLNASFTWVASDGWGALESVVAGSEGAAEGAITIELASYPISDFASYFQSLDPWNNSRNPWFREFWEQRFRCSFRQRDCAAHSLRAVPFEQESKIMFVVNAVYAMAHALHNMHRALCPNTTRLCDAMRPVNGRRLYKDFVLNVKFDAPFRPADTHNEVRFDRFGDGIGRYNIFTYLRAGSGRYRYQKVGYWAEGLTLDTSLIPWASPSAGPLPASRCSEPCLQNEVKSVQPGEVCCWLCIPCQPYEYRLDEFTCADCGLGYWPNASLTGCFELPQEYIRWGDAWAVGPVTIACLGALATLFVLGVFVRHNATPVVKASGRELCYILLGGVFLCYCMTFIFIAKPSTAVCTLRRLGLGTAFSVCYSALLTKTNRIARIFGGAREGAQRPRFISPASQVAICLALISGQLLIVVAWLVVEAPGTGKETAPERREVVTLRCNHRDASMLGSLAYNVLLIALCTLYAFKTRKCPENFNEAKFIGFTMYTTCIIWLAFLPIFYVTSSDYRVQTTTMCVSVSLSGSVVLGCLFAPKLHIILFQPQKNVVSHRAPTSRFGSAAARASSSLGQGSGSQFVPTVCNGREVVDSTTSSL

Row | Compound | EC50 [nM]
1 | CC(C)(C)c1ccc(OC[C@@H]2Cn3c(nc4ccccc43)O2)cc1 [Example 1-4, (2S)-2-[(4-tert-butylphenoxy)methyl]-2,3-dihydro[1,3]oxazolo[3,2-a]benzimidazole] | 11
2 | CC(=O)c1cccc(OC[C@@H]2Cn3c(nc4ccccc43)O2)c1 [Example 1-5, 1-{3-[(2S)-2,3-dihydro[1,3]oxazolo[3,2-a]benzimidazol-2-ylmethoxy]phenyl}ethanone] | 522
3 | Cn1nccc1-c1ccc(OC[C@@H]2Cn3c(nc4ccccc43)O2)cc1 [Example 2-1, (2S)-2-{[4-(1-methyl-1H-pyrazol-5-yl)phenoxy]methyl}-2,3-dihydro[1,3]oxazolo[3,2-a]benzimidazole] | 137
4 | CC(C)(c1ccc(OC[C@@H]2Cn3c(nc4ccccc43)O2)cc1)C(F)(F)F [Example 3-5, (2S)-2-{[4-(2,2,2-trifluoro-1,1-dimethylethyl)phenoxy]methyl}-2,3-dihydro[1,3]oxazolo[3,2-a]benzimidazole] | 12
5 | Clc1cccc(OC[C@@H]2Cn3c(nc4ccccc43)O2)c1 [Example 3-9, (2S)-2-[(3-chlorophenoxy)methyl]-2,3-dihydro[1,3]oxazolo[3,2-a]benzimidazole] | 37
6 | c1ccc(OC[C@@H]2Cn3c(nc4ccccc43)O2)cc1 [Example 3-20, (2S)-2-(phenoxymethyl)-2,3-dihydro[1,3]oxazolo[3,2-a]benzimidazole, reference compound] | 235
7 | C[Si](C)(C)c1ccc(OC[C@@H]2Cn3c(nc4ccccc43)O2)cc1 [Example 4-1, (2S)-2-{[4-(trimethylsilyl)phenoxy]methyl}-2,3-dihydro[1,3]oxazolo[3,2-a]benzimidazole] | 27
